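All cell lines were grown in 96-well plates and treated with compound for 48 hours. At the TGI there is no net growth.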
Assays:
Test in all cases: growth of human tumour cells (NCI), 48 h
[1] = test system: PC-3 prostate
[2] = test system: MDA-MB-435
[3] = test system: U251 CNS
[4] = test system: OVCAR-5 ovarian
[5] = test system: SK-MEL-5 melanoma
[6] = test system: SF-268 CNS
[7] = test system: OVCAR-3 ovarian
[8] = test system: KM12 colon
[9] = test system: SNB-75 CNS
[10] = test system: 786-0 renal
[11] = test system: MDA-MB-231 breast
[12] = test system: RXF 393 renal
[13] = test system: SW-620 colon
[14] = test system: SK-OV-3 ovarian
[15] = test system: HCC-2998 colon
[16] = test system: BT-549 breast
[17] = test system: A498 renal
[18] = test system: UO-31 renal

CCCc1nc2c(n1CC)C(=O)c1ccccc1C2=O
TGI [1]: > 100 µM | TGI [2]: 32.3 µM | TGI [3]: > 100 µM | TGI [4]: > 100 µM | TGI [5]: 88.7 µM | TGI [6]: > 100 µM | TGI [7]: > 100 µM | TGI [8]: > 100 µM | TGI [9]: > 100 µM | TGI [10]: > 100 µM | TGI [11]: > 100 µM | TGI [12]: 69.1 µM | TGI [13]: > 100 µM | TGI [14]: > 100 µM | TGI [15]: > 100 µM | TGI [16]: > 100 µM

COC(=O)/C=C/[C@@H]1[C@H](C)N1S(=O)(=O)c1ccc(C)cc1 (stereo partly drawn)
TGI [1]: > 100 µM | TGI [2]: > 100 µM | TGI [3]: > 100 µM | TGI [4]: > 100 µM | TGI [5]: > 100 µM | TGI [6]: > 100 µM | TGI [7]: > 100 µM | TGI [10]: > 100 µM | TGI [11]: > 100 µM | TGI [12]: > 100 µM | TGI [17]: > 100 µM | TGI [13]: > 100 µM | TGI [14]: > 100 µM | TGI [15]: > 100 µM | TGI [16]: > 100 µM

COc1ccccc1N/C(SCc1ccccc1)=C(/C(Cl)=C(Cl)Cl)[N+](=O)[O-]
TGI [18]: 34.6 µM | TGI [1]: > 100 µM | TGI [2]: 42.5 µM | TGI [3]: 47.3 µM | TGI [4]: > 100 µM | TGI [6]: 39 µM | TGI [7]: 40.7 µM | TGI [8]: > 100 µM | TGI [9]: 84.2 µM | TGI [10]: 97.8 µM | TGI [11]: 48.4 µM | TGI [17]: > 100 µM | TGI [13]: 31.7 µM | TGI [14]: > 100 µM | TGI [16]: 32.9 µM

O=C1NC2(CCNCC2)Oc2ccccc21
TGI [18]: > 100 µM | TGI [1]: > 100 µM | TGI [2]: > 100 µM | TGI [3]: > 100 µM | TGI [4]: > 100 µM | TGI [5]: > 100 µM | TGI [6]: > 100 µM | TGI [7]: > 100 µM | TGI [8]: > 100 µM | TGI [9]: > 100 µM | TGI [10]: > 100 µM | TGI [11]: > 100 µM | TGI [12]: > 100 µM | TGI [13]: > 100 µM | TGI [14]: > 100 µM | TGI [15]: > 100 µM | TGI [16]: > 100 µM

CC(=O)/C(=C\I)c1ccccc1
TGI [18]: 10.3 µM | TGI [1]: 5.08 µM | TGI [2]: 12.8 µM | TGI [3]: 5.37 µM | TGI [4]: 2.99 µM | TGI [6]: 36.5 µM | TGI [7]: 3.23 µM | TGI [8]: 13.3 µM | TGI [9]: 20.3 µM | TGI [10]: 4.13 µM | TGI [11]: 3.74 µM | TGI [12]: 3.36 µM | TGI [17]: 32.3 µM | TGI [13]: 2.82 µM | TGI [14]: 26.5 µM | TGI [16]: 3.39 µM

O=C1Oc2ccccc2C(=O)/C1=C/N1C(=O)CNC1=S
TGI [18]: > 100 µM | TGI [1]: > 100 µM | TGI [2]: > 100 µM | TGI [3]: > 100 µM | TGI [4]: > 100 µM | TGI [5]: > 100 µM | TGI [6]: > 100 µM | TGI [7]: > 100 µM | TGI [8]: > 100 µM | TGI [10]: > 100 µM | TGI [11]: > 100 µM | TGI [12]: > 100 µM | TGI [13]: > 100 µM | TGI [14]: > 100 µM | TGI [15]: > 100 µM | TGI [16]: > 100 µM

CC(=O)N1C(Nc2nccs2)CCN1c1ccccc1 (stereo not drawn)
TGI [1]: > 10 µM | TGI [2]: > 10 µM | TGI [4]: > 10 µM | TGI [5]: > 10 µM | TGI [6]: > 10 µM | TGI [7]: > 10 µM | TGI [9]: > 10 µM | TGI [10]: > 10 µM | TGI [11]: > 10 µM | TGI [12]: > 10 µM | TGI [13]: > 10 µM | TGI [15]: > 10 µM | TGI [16]: > 10 µM

CC(C)[C@H]1NC(=O)[C@H]2N=C(S[C@H]2C)[C@@H]2CCCN2C(=O)[C@H](Cc2ccccc2)NC(=O)[C@@H]2CSC(=N2)[C@@H](Cc2ccccc2)NC(=O)[C@@H]2CSC1=N2
TGI [18]: > 50 µM | TGI [1]: > 50 µM | TGI [2]: > 50 µM | TGI [3]: > 50 µM | TGI [4]: > 50 µM | TGI [5]: > 50 µM | TGI [6]: > 50 µM | TGI [7]: > 50 µM | TGI [8]: > 50 µM | TGI [10]: > 50 µM | TGI [11]: > 50 µM | TGI [12]: > 50 µM | TGI [17]: 41.7 µM | TGI [13]: > 50 µM | TGI [14]: > 50 µM | TGI [15]: 28.2 µM | TGI [16]: > 50 µM

CSc1nc(=O)cnn1C
TGI [18]: > 100 µM | TGI [1]: > 100 µM | TGI [2]: > 100 µM | TGI [3]: > 100 µM | TGI [4]: > 100 µM | TGI [5]: > 100 µM | TGI [6]: > 100 µM | TGI [7]: > 100 µM | TGI [8]: > 100 µM | TGI [9]: > 100 µM | TGI [10]: > 100 µM | TGI [11]: > 100 µM | TGI [12]: > 100 µM | TGI [13]: > 100 µM | TGI [14]: > 100 µM | TGI [15]: > 100 µM | TGI [16]: > 100 µM

Cc1nn(C(=O)c2ccncc2)c2c1C(c1ccccc1[N+](=O)[O-])SC(N)=N2 (stereo not drawn)
TGI [1]: > 10 µM | TGI [2]: > 10 µM | TGI [4]: > 10 µM | TGI [5]: > 10 µM | TGI [6]: > 10 µM | TGI [7]: > 10 µM | TGI [8]: > 10 µM | TGI [9]: > 10 µM | TGI [10]: > 10 µM | TGI [11]: > 10 µM | TGI [12]: > 10 µM | TGI [13]: > 10 µM | TGI [15]: > 10 µM | TGI [16]: > 10 µM

CCCCCCCCCCCCCCCCNC(=O)/C(=C\c1ccc(Cl)c(Cl)c1)NC(=O)c1ccccc1
TGI [18]: > 100 µM | TGI [1]: 74.6 µM | TGI [2]: > 100 µM | TGI [3]: > 100 µM | TGI [4]: > 100 µM | TGI [5]: > 100 µM | TGI [6]: > 100 µM | TGI [7]: > 100 µM | TGI [8]: > 100 µM | TGI [9]: 33.1 µM | TGI [10]: 47.4 µM | TGI [11]: 40.3 µM | TGI [12]: 31.8 µM | TGI [17]: 35.5 µM | TGI [13]: > 100 µM | TGI [14]: > 100 µM | TGI [16]: > 100 µM
